Results as given in patent US9132140B2, “Boronic acid derivatives and therapeutic uses thereof” (Rempex Pharmaceuticals, Inc., priority 2013, dated 2015).

How the values were obtained:
KPC-2 [1] = target: T1, KPC-2 (Klebsiella pneumoniae, UniProt Q9F663); assay: Inhibition of purified class A carbapenemase, biapenem cleavage; format: biochemical; conditions: substrate biapenem 100 μM
KPC-2 [2] = target: T1, KPC-2; assay: Inhibition of purified beta-lactamase, nitrocefin cleavage; format: biochemical; conditions: read-out: Ki (KPC-2, NCF)
Procedure: Purified enzymes were mixed with various concentrations of inhibitors in reaction buffer and incubated for 10 min at room temperature. Nitrocefin was added and substrate cleavage profiles were recorded at 490 nm every 10 sec for 10 min.

ECM6703 (pUCP24-NDM-1) = assay: microbe, parasite or virus in culture; format: cell-based, E. coli; conditions: NDM-1 producing strain; compound fixed 4 μg/ml or 8 μg/ml
ECM6711 (pUCP24-VIM-1) = assay: microbe, parasite or virus in culture; format: cell-based, E. coli; conditions: VIM-1 producing strain; compound fixed 4 μg/ml or 8 μg/ml
[3] = test system: panel of clinical isolates expressing class A, B and D carbapenemases; assay: Carbapenem potentiation MIC, whole panel; format: cell-based; conditions: all strains of the panel; compound fixed 5 μg/ml
From the text: The results are present in Table 6.
The results are present in Table 7.

T1 sequence (Q9F663 25-293, looked up, species assumed): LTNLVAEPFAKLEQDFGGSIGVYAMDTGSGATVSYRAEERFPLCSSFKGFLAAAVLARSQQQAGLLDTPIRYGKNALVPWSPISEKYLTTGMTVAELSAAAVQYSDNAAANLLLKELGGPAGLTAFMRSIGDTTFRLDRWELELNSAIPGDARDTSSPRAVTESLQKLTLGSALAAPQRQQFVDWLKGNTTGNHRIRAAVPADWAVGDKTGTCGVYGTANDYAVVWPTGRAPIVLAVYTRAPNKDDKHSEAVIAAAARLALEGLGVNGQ

O=C(O)c1cccc2c1OB(O)[C@@H](Sc1nncs1)C2 [Compound 1, (R)-3-(1,3,4-thiadiazol-2-ylthio)-2-hydroxy-3,4-dihydro-2H-benzo[e][1,2]oxaborinine-8-carboxylic acid]
Ki (KPC-2 [1]): 10 to 100 nM
Ki (KPC-2 [2]): 100 to 1000 nM
imipenem MIC in the presence of compound (ECM6703 (pUCP24-NDM-1)): decreased to the level of the strain containing empty vector
imipenem MIC in the presence of compound (ECM6711 (pUCP24-VIM-1)): decreased to the level of the strain containing empty vector
carbapenem MIC in the presence of compound [3]: significantly reduced
